What was measured:
[1] = target: T1, glutathione S-transferase (GST)-fused full-length human Syk protein (Homo sapiens, UniProt P43405); assay: Syk enzyme assay; assay type: biochemical; conditions: Syk enzyme assay, Test Example 1; read-out: IC50 of Syk-inhibitory activity
T1 construct: (GST)-fused full-length human Syk protein; GST (glutathione S-transferase); purchased Carna Biosciences
Summary of the method: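 Baculovirus-expressed enzyme (1.2 ng) was preincubated with compound in HEPES pH 7.0/MgCl2/DTT buffer, 2 min shaking then 13 min at room temperature. Biotin-EDPDYEWPSA-NH2 (0.4 μM final) and ATP (27 μM final) were added for 40 min at room temperature. EDTA stop, streptavidin-XL/PT66-K TR-FRET at 615/665 nm gave IC50.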

THP-1 cells = assay: TNFα generation assay; assay type: cell-based, human; conditions: Homo sapiens, THP-1, THP-1 cells; Table 22; read-out: IC50 in TNFα generation assay
Summary of the method: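 THP-1 cells differentiated to macrophage-like cells with 10 ng/ml IFN-γ for 2 days, preincubated with compound 30 min at room temperature, then cultured 7 h on plates coated with human IgG (10 μg/ml). Secreted TNFα measured by ELISA or AlphaLISA.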

SMILES	IC50 [1] [nM]	IC50 (THP-1 cells) [nM]
CC(C)C[C@@H](Nc1nc(Nc2ccc3c(c2)c(F)nn3CC(F)F)c(C(N)=O)cc1F)[C@H](C)N [Example 006-513, 6-(((2S,3R)-2-amino-5-methylhexan-3-yl)amino)-2-((1-(2,2-difluoroethyl)-3-fluoro-1H-indazol-5-yl)amino)-5-fluoronicotinamide]	< 10	65 to 130
C[C@H](N)[C@H](Nc1nc(Nc2ccc(N3CCOCC3)nc2)c(C(N)=O)cc1F)C1CC1 [Example 006-515, 6-(((1R,2S)-2-amino-1-cyclopropylpropyl)amino)-5-fluoro-2-((6-morpholinopyridin-3-yl)amino)nicotinamide]	< 10	130 to 200
CCn1ncc2cc(Nc3nc(N[C@H](c4ccccc4)[C@H](C)N)c(F)cc3C(N)=O)ccc21 [Example 006-516, 6-(((1R,2S)-2-amino-1-phenylpropyl)amino)-2-((1-ethyl-1H-indazol-5-yl)amino)-5-fluoronicotinamide]	< 10	< 65
COCCOc1ncc(Nc2nc(N[C@@H]3CCCC[C@@H]3N)c(F)cc2C(N)=O)cc1-n1nccn1 [Example 006-517, 6-(((1R,2S)-2-aminocyclohexyl)amino)-5-fluoro-2-((6-(2-methoxyethoxy)-5-(2H-1,2,3-triazol-2-yl)pyridin-3-yl)amino)nicotinamide]	< 10	65 to 130
CCn1ncc2c(Nc3nc(N[C@H](CC(C)C)[C@H](C)N)c(F)cc3C(N)=O)cccc21 [Example 006-519, 6-(((2S,3R)-2-amino-5-methylhexan-3-yl)amino)-2-((1-ethyl-1H-indazol-4-yl)amino)-5-fluoronicotinamide]	< 10	65 to 130
Cc1nn(C)c2ccc(Nc3nc(N[C@H](CC(C)C)[C@H](C)N)c(F)cc3C(N)=O)cc12 [Example 006-520, 6-(((2S,3R)-2-amino-5-methylhexan-3-yl)amino)-2-((1,3-dimethyl-1H-indazol-5-yl)amino)-5-fluoronicotinamide]	< 10	< 65
CCn1nc(C)c2cc(Nc3nc(N[C@H](CC(C)C)[C@H](C)N)c(F)cc3C(N)=O)ccc21 [Example 006-521, 6-(((2S,3R)-2-amino-5-methylhexan-3-yl)amino)-2-((1-ethyl-3-methyl-1H-indazol-5-yl)amino)-5-fluoronicotinamide]	< 10	65 to 130
Cc1nn(CC(F)F)c2ccc(Nc3nc(N[C@H](CC(C)C)[C@H](C)N)c(F)cc3C(N)=O)cc12 [Example 006-522, 6-(((2S,3R)-2-amino-5-methylhexan-3-yl)amino)-2-((1-(2,2-difluoroethyl)-3-methyl-1H-indazol-5-yl)amino)-5-fluoronicotinamide]	< 10	< 65
CC[C@@H](Nc1nc(Nc2cccc3c2cnn3CC)c(C(N)=O)cc1F)[C@H](C)N [Example 006-523, 6-(((2S,3R)-2-aminopentan-3-yl)amino)-2-((1-ethyl-1H-indazol-4-yl)amino)-5-fluoronicotinamide]	< 10	< 65
CC[C@@H](Nc1nc(Nc2ccc3c(c2)c(C)nn3C)c(C(N)=O)cc1F)[C@H](C)N [Example 006-524, 6-(((2S,3R)-2-aminopentan-3-yl)amino)-2-((1,3-dimethyl-1H-indazol-5-yl)amino)-5-fluoronicotinamide]	< 10	< 65
CC[C@@H](Nc1nc(Nc2ccc3c(c2)c(C)nn3CC)c(C(N)=O)cc1F)[C@H](C)N [Example 006-525, 6-(((2S,3R)-2-aminopentan-3-yl)amino)-2-((1-ethyl-3-methyl-1H-indazol-5-yl)amino)-5-fluoronicotinamide]	< 10	65 to 130
CC[C@@H](Nc1nc(Nc2ccc3c(c2)c(C)nn3CC(F)F)c(C(N)=O)cc1F)[C@H](C)N [Example 006-526, 6-(((2S,3R)-2-aminopentan-3-yl)amino)-2-((1-(2,2-difluoroethyl)-3-methyl-1H-indazol-5-yl)amino)-5-fluoronicotinamide]	< 10	< 65
